Test results from patent US20230365625A1, “METHODS FOR TREATING AND/OR PREVENTING UNDESIRABLE SEQULAE OF NASAL TURBINOPLASTY OR FUNCTIONAL ENDOSCOPIC SINUS SURGERY” (3-D Matrix, Ltd., priority 2022, published 2023).
Several values for one entry are separate records, joined by “and”; a condition that tells them apart may be missing. Equal values may be shown once.

Tests used:
[1] = test system: Functional Endoscopic Sinus Surgery (FESS) surgical wound; format: in vivo, human
Text: (§1) Study design—This study was a retrospective chart review of 94 consecutive human patients who underwent FESS and who were operated on by a single surgeon in a single center in Perth, Western Australia. FIGS. 6A and 6B show a flowchart of patients based on extent of surgery and outcomes. Only patients treated with PuraSinus alone (no other hemostatic agent was used) were included in the analysis. Ethics approval was obtained from St John of Good Health Care Human Research Ethics Committee.
(§2) Patient population—The study included adult human patients who underwent FESS procedures and also included patients who underwent FESS in combination with nasal surgery (septoplasty and/or turbinoplasty). Both primary and revision cases were included. Patients were discharged the day after surgery with a recommendation to perform saline nasal irrigations no less than four times a day. Patient characteristics, indication for surgery, extent of surgical intervention, and bleeding and adhesion information was recorded.
(§3) Surgical categories—Procedures were performed according to the minimally invasive sinus technique (MIST), including combination of maxillary antrostomy, ethmoidectomies, sphenoidotomies and frontal sinus (Draf Ila, or Draf 111), turbinate reduction and/or septoplasty. FESS procedures were categorized into two groups: complete FESS (including all sinuses—maxillary antrostomy, ethmoidectomy, sphenoidotomy, and frontal sinusotomy) or limited FESS (anything less than complete FESS, usually involves antrostomy and ethmoidectomy). The surgical extent was dictated by the patient's condition and the surgeon's clinical judgement.
(§4) Material used—PuraSinus (licensed as PuraStat in Australia, 3D-Matrix)/RADA16-I (SEQ ID NO:1) 2.5% w/v in water is a transparent SAP solution supplied sterile in a pre-filled syringe (available in a 3 mL and 5 mL form) ready for use with a thin application nozzle suited for endoscopic catheter administration. The syringe is stored at between 2° C. and 8° C. At completion of the FESS procedure, PuraSinus was applied to the surgical wound in a thin and even layer as close as possible to the bleeding point. A similar application technique has been outlined previously (M. Lee et al., Int. J. Surg. Case Rep. 41: 461-4 (2017)). […] Tissues treated with the hydrogel were visible via endoscope given the gel's transparency.
(§5) Outcomes and objectives—The objectives of this study were to evaluate the effectiveness of PuraSinus in rapidly achieving intraoperative hemostasis and to assess the incidence of delayed bleeding ([…]) and synechiae formation via endoscopic observation of the nasal mucosa at follow-up visits. Primary bleeding was defined as bleeding occurring within 24 hours of surgery.
(§6) Data analysis—Statistical analysis was performed using descriptive statistics for continuous variables and patient demographics were reported. The rate of successful hemostasis and incidence of synechiae formation were calculated as a proportion of total patients undergoing FESS.

[2] = test system: Functional Endoscopic Sinus Surgery (FESS) surgical wound; format: in vivo, human; remark: listed apart in the source
Text: as §1, §2, §3, §4, §5, §6
Adhesions—Nasal endoscopic examination of each patient was performed at a first follow-up visit occurring between 7 and 30 days after surgery (median 15 days, mean±SD 14.0±3.7 days). A subsequent follow-up examination of each patient was performed on average on day 42, ranging from 28 to 79 days post-surgery. […] Debridement of the observed synechiae was performed in these cases in the outpatient setting by either suction (n=13) or scissors (n=10). […] Thus, the desired outcome of intraoperative treatment with PuraSinus (SEQ ID NO:1) in achieving recovery without synechiae formation in these patients was nearly 90% (n=84/94). None of the patients who had required additional intervention for hemostasis subsequently presented with adhesion formation.

SMILES: CC(=O)N[C@@H](CCCNC(=N)N)C(=O)N[C@@H](C)C(=O)N[C@@H](CC(=O)O)C(=O)N[C@@H](C)C(=O)N[C@@H](CCCNC(=N)N)C(=O)N[C@@H](C)C(=O)N[C@@H](CC(=O)O)C(=O)N[C@@H](C)C(=O)N[C@@H](CCCNC(=N)N)C(=O)N[C@@H](C)C(=O)N[C@@H](CC(=O)O)C(=O)N[C@@H](C)C(=O)N[C@@H](CCCNC(=N)N)C(=O)N[C@@H](C)C(=O)N[C@@H](CC(=O)O)C(=O)N[C@@H](C)C(N)=O [PuraSinus, Ac-RADARADARADARADA-NH2]
- Blood transfusion required ([1]; human, in vivo): None of the patients in this study required a blood transfusion
- Secondary bleed, patients ([1]; more than 24 hours after surgery, n of 94): 3
- Secondary bleed, rate ([1]; more than 24 hours after surgery, of 94 patients): 3.2%
- Intervention required for bleeding, patients ([1]; n of 94): 4
- Intervention required, primary bleed, patients ([1]; n of 94): 3
- Intervention required, secondary bleed, patients ([1]; n of 94): 1
- Bleed (postoperative), patients ([1]; n of 94 patients): 6
- Hemostatic effectiveness, patients ([1]; no bleeding or no intervention required, n of 94): 90
- Hemostatic effectiveness, rate ([1]; no bleeding or no intervention required, of 94 patients): 95.7%
- Type of intervention: Cautery + Surgiflo, patients ([1]; of 4 interventions): 1
- Type of intervention: Cautery + additional PuraSinus, patients ([1]; of 4 interventions): 1
- Type of intervention: Cautery alone, patients ([1]; of 4 interventions): 1
- Type of intervention: Packing, patients ([1]; of 4 interventions): 1
- Bleeding patients on anticoagulation/antiplatelets post-op ([1]; of 6 bleeds): 1
- Bleeding patients with suspected or confirmed coagulopathy ([1]; of 6 bleeds): 2
- Patients with postoperative bleeding: Complete FESS ([1]; of 6 bleeds): 1
- Patients with postoperative bleeding: Female ([1]; of 6 bleeds): 5
- Patients with postoperative bleeding: Limited FESS ([1]; of 6 bleeds): 5
- Patients with postoperative bleeding: Male ([1]; of 6 bleeds): 1
- Bleed (postoperative), rate ([1]; of 94 patients): 6.4%
- Intervention required for bleeding, rate ([1]; of 94 patients): 4.3% and 4.2%
- Intervention required, primary bleed, rate ([1]; of 94 patients): 3.2%
- Intervention required, secondary bleed, rate ([1]; of 94 patients): 1.1%
- Re-bleeds in patients with primary or secondary bleeds ([1]; result in words): no re-bleeds recorded
- Hemostasis in the absence of other hemostatic agents and devices ([1]; result in words, most patients): effective hemostasis
- Primary bleed, patients ([1]; within 24 hours of surgery, n of 94): 3
- Primary bleed, rate ([1]; within 24 hours of surgery, of 94 patients): 3.2%
- Adhesion formation at first follow up visit, patients ([2]; 7-30 days after surgery): 18
- Persisting adhesions, patients ([2]; final outcome, of 23): 5
- Resolved adhesions, patients ([2]; final outcome, of 23): 18
- Adhesion formation, total patients ([2]; full follow-up period, n of 94): 23
- Adhesion (synechiae) formation, rate ([2]; full follow-up period, of 94 patients): 24.5%
- Pain at the surgical site ([2]; human, in vivo): all patients expressed comfort with no pain
- Patients with no adhesions found ([2]; n of 94): 71
- Adhesion location: Inferior turbinate/septum + medial turbinate/lateral wall, patients ([2]; of 23): 4
- Adhesion location: Inferior turbinate/septum, patients ([2]; of 23): 12
- Adhesion location: Medial turbinate/lateral wall, patients ([2]; of 23): 7
- Debridement by scissors (sharp), patients ([2]; of 23): 10
- Debridement by suction, patients ([2]; of 23): 13
- Patients with adhesion formation: Complete FESS ([2]; of 23): 8
- Patients with adhesion formation: Female ([2]; of 23): 16
- Patients with adhesion formation: Limited FESS ([2]; of 23): 15
- Patients with adhesion formation: Male ([2]; of 23): 7
- Patients free of adhesions, rate ([2]; second follow-up examination, of 94 patients): ~90% and 89.4%
- Patients without adhesions ([2]; second follow-up, no adhesions or adhesions easily removed by suction, of 94): 84 and 84/94
